From patent publication US20250186403A1 (ARIZONA BOARD OF REGENTS ON BEHALF OF THE UNIVERSITY OF …, priority 2022, published 2025)
pIC50: −log10 of the molar value.

What was measured:
Cne cells = assay: Checkerboard assay with known antifungals; assay type: cell-based, Cryptococcus neoformans; conditions: for MIC: Cryptococcus neoformans, read-out: MIC Alone
Protocol: After adding Cne cells, the plates were incubated for 48 h. Well contents were mixed by pipette, and absorbance was read at 630 nm. […] Based on the FIC, the combinatorial effects are decided as in Table 2.

[1] = molecular target: Split-NanoLuc-Prp8 intein protein (Cryptococcus gattii, UniProt E6R027); assay: Split nanoluciferase-Prp8 intein splicing assay; assay type: biochemical; conditions: 1 nM protein, 100 µM TCEP, 24 h; read-out: IC50, Prp8-NanoBit splicing
Protocol: TCEP is added to a final concentration of 100 µM and incubated for 24 h. The substrate Nano-Glo luciferase (Promega) was added, and the resulting luminescence was read. IC50 was calculated using GraphPad prism.
For the split nanoluciferase-Prp8 intein, in order to block the free cysteine residues, 5,5′-dithiobis-(2-nitrobenzoic) acid (DTNB) was added to 1:10 molar ratio and incubated at 4° C. for 5 min and dialyzed in 20 mM Tris, 150 mM NaCl, pH 9.0 and stored at −80° C. till further use.
The protein was diluted into 2 nM in assay buffer 20 mM tris, 150 mM NaCl with 0.1% BSA, 2 mM EDTA), and 80 μl was added to each well of 96 well plates (white, opaque). […] The plates were incubated at RT for 30 min, and 20 μl of TCEP was added to a final concentration of 100 µM. The plates were sealed to prevent evaporation. After incubating for 24 h at RT, 25 μl of the diluted (1:10,000 in assay buffer) diluted nanoluc substrate furimazine (Promega) was added. The emitted luminescence was quantified using the EnVision luminescence reader (Synergyll, Biotech). The IC50 was calculated using the GraphPad prism version 9.

[2] = single drug, ≥90% reduction of absorbance at 630 nm, 48 h

Split-NanoLuc-Prp8 intein protein, sequence (E6R027 entry or part of it): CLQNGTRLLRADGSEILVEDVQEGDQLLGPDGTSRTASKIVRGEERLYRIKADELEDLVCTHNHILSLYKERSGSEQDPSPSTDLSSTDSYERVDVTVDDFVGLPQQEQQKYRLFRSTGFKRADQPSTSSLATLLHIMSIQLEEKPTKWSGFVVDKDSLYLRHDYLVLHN

Nc1nc(=O)[nH]cc1F [5-Fluorocytosine]
MIC (Cne cells; [2]): 4.13 µg/mL | MIC Comb (Cne cells; combination CMN + 5-Fluorocytosine, well D2): 2.06 µg/mL

C[C@@H]1[C@H](O)[C@@H](C)/C=C/C=C/C=C/C=C/C=C/C=C/C=C/[C@H](O[C@@H]2O[C@H](C)[C@@H](O)[C@H](N)[C@@H]2O)C[C@@H]2O[C@](O)(C[C@@H](O)C[C@@H](O)[C@H](O)CC[C@@H](O)C[C@@H](O)CC(=O)O[C@H]1C)C[C@H](O)[C@H]2C(=O)O [Amphotericin B]
MIC Comb (Cne cells; combination CMN + Amphotericin B, well E6): 0.14 µg/mL | MIC Alone (Cne cells; [2]): 0.6 µg/mL

CCC(C)n1ncn(-c2ccc(N3CCN(c4ccc(OCC5COC(Cn6cncn6)(c6ccc(Cl)cc6Cl)O5)cc4)CC3)cc2)c1=O (stereo not drawn) [Itraconazole]
MIC (Cne cells; [2]): 0.22 µg/mL | MIC Comb (Cne cells; combination CMN + Itraconazole, well E4): 0.22 µg/mL

C[C@@H](c1ncncc1F)[C@](O)(Cn1cncn1)c1ccc(F)cc1F [Voriconazole]
MIC (Cne cells; [2]): 0.05 µg/mL | MIC Comb (Cne cells; combination CMN + Voriconazole, well D4): 0.05 µg/mL

N.N.[Cl][Pt][Cl] [cisplatin]
pIC50 [1]: 5.85
